Earlier results in patent US20180193283A1, “TRANSDERMAL THERAPEUTIC SYSTEM CONTAINING ASENAPINE” (LTS LOHMANN Therapie-Systeme AG, priority 2016, published 2018).
Like-named read-outs stand apart in the source and are kept apart here.

Experiments:
[1] = very common side effects

## CN1C[C@H]2c3ccccc3Oc3ccc(Cl)cc3[C@@H]2C1 (relative stereo) [asenapine, (3aRS,12bRS)-rel-5-chloro-2,3,3a,12b-tetrahydro-2-methyl-1H-dibenz[2,3:6,7]oxepino[4,5-c]pyrrole]
[1]
  Somnolence and anxiety, frequency: ≥ 10 % of the patients
If ingested
  bioavailability: < 2%
Sublingual administration, therapeutic doses
  terminal disposition half-life: ≥ 1 days
When taken sublingually
  bioavailability: 35%
